Experimental data as given in PubChem BioAssay AID248 (DTP/NCI, 2004).
Values joined by “and” are separate entries in the source; they are usually repeats but may differ in a detail not shown here. Equal entries are not always repeated. Toxic doses and inconclusive results are not listed. Rule as the data show it: active = T/C of 150% or more; inactive = T/C below 125%.

Tested on: L1210 leukemia ip in BDF1 mice, survival T/C
Assay: NCI In Vivo Anticancer Drug Screen. Data for tumor model L1210 Leukemia (intraperitoneal) in B6D2F1 (BDF1) mice
Settings: endpoint: mean survival time, higher = longer survival
How it was run: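 Survival endpoint. Drug-treated group vs vehicle group, expressed as T divided by C. Tumor passaged by transplantation.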

[1] = dose: 100.0 mg/kg/injection, schedule: Q01DX001 (ip), vehicle: saline
[2] = dose: 50.0 mg/kg/injection, schedule: Q01DX001 (ip), vehicle: carboxymethylcellulose (CMC)
[3] = dose: 100.0 mg/kg/injection, schedule: Q01DX001 (ip), vehicle: carboxymethylcellulose (CMC)
[4] = dose: 200.0 mg/kg/injection, schedule: Q01DX001 (ip), vehicle: carboxymethylcellulose (CMC)
[5] = dose: 400.0 mg/kg/injection, schedule: Q01DX001 (ip), vehicle: carboxymethylcellulose (CMC)
[6] = dose: 100.0 mg/kg/injection, schedule: Q04DX003 (ip), vehicle: Klucel (hydroxypropylcellulose) (HPC)
[7] = dose: 100.0 mg/kg/injection, schedule: Q04DX002 (ip), vehicle: Klucel (hydroxypropylcellulose) (HPC)
[8] = dose: 200.0 mg/kg/injection, schedule: Q04DX002 (ip), vehicle: Klucel (hydroxypropylcellulose) (HPC)
[9] = dose: 100.0 mg/kg/injection, schedule: Q01DX009 (ip), vehicle: other
[10] = dose: 200.0 mg/kg/injection, schedule: Q01DX009 (ip), vehicle: other

Measured: T/C

CCCCC[Si](C)(C)C
inactive: [1] 103 % of control | dose: 200.0 mg/kg/injection, schedule: Q01DX001 (ip), vehicle: saline 97 % of control | dose: 400.0 mg/kg/injection, schedule: Q01DX001 (ip), vehicle: saline 105 % of control

O=C1Nc2cc(C(F)(F)F)ccc2/C1=C/c1ccc(Cl)cc1
inactive: dose: 75.0 mg/kg/injection, schedule: Q01DX001 (ip), vehicle: saline 92 % of control | dose: 75.0 mg/kg/injection, schedule: Q04DX003 (ip), vehicle: saline 96 % of control | dose: 150.0 mg/kg/injection, schedule: Q01DX001 (ip), vehicle: saline 97 % of control | dose: 150.0 mg/kg/injection, schedule: Q04DX003 (ip), vehicle: saline 100 % of control | dose: 300.0 mg/kg/injection, schedule: Q01DX001 (ip), vehicle: saline 97 % of control | dose: 300.0 mg/kg/injection, schedule: Q04DX003 (ip), vehicle: saline 94 % of control

CC(C)[N+]1=C(/C=C/c2ccc3cccnc3c2O)C(C)(C)c2ccccc21
inactive: [2] 97 % of control | [3] 103 % of control | [4] 95 % of control | [5] 95 % of control

CC[N+](CC)(CC)Cc1ccccc1 (tested in a mixture with another compound)
inactive: dose: 6.25 mg/kg/injection, schedule: Q01DX009 (ip), vehicle: saline 97 % of control | dose: 12.5 mg/kg/injection, schedule: Q01DX009 (ip), vehicle: saline 103 % of control | dose: 25.0 mg/kg/injection, schedule: Q01DX001 (ip), vehicle: saline 96 % of control | dose: 25.0 mg/kg/injection, schedule: Q01DX009 (ip), vehicle: saline 95 % of control and 108 % of control | dose: 25.0 mg/kg/injection, schedule: Q04DX003 (ip), vehicle: saline 111 % of control and 96 % of control | dose: 50.0 mg/kg/injection, schedule: Q01DX001 (ip), vehicle: saline 112 % of control | dose: 50.0 mg/kg/injection, schedule: Q04DX003 (ip), vehicle: saline 102 % of control and 104 % of control | [1] 98 % of control and 106 % of control | dose: 100.0 mg/kg/injection, schedule: Q01DX009 (ip), vehicle: saline with Tween-80 92 % of control | dose: 100.0 mg/kg/injection, schedule: Q04DX003 (ip), vehicle: saline 88 % of control | dose: 200.0 mg/kg/injection, schedule: Q01DX009 (ip), vehicle: saline with Tween-80 96 % of control | dose: 400.0 mg/kg/injection, schedule: Q01DX009 (ip), vehicle: saline with Tween-80 92 % of control

CC1(O)C(=O)C=Cc2ccccc21 (configuration not stated)
inactive: dose: 100.0 mg/kg/injection, schedule: Q01DX001 (ip), vehicle: Klucel (hydroxypropylcellulose) (HPC) 93 % of control | dose: 200.0 mg/kg/injection, schedule: Q01DX001 (ip), vehicle: Klucel (hydroxypropylcellulose) (HPC) 102 % of control | dose: 400.0 mg/kg/injection, schedule: Q01DX001 (ip), vehicle: Klucel (hydroxypropylcellulose) (HPC) 96 % of control

Cc1ccccc1Sc1ccccc1[N+](=O)[O-]
inactive: [6] 95 % of control | dose: 200.0 mg/kg/injection, schedule: Q04DX003 (ip), vehicle: Klucel (hydroxypropylcellulose) (HPC) 106 % of control | dose: 400.0 mg/kg/injection, schedule: Q04DX003 (ip), vehicle: Klucel (hydroxypropylcellulose) (HPC) 103 % of control

OCC1OC(n2ncc3nccnc32)C(O)C1O (configuration not stated)
inactive: dose: 50.0 mg/kg/injection, schedule: Q01DX005 (ip), vehicle: other 105 % of control | dose: 100.0 mg/kg/injection, schedule: Q01DX005 (ip), vehicle: other 105 % of control | dose: 200.0 mg/kg/injection, schedule: Q01DX005 (ip), vehicle: other 91 % of control

CCCCCCCCCCCCSCCSCCCCCCCCCCCC
inactive: [3] 93 % of control | [4] 86 % of control | [5] 102 % of control

Nc1nc(N)c(CCCOc2cccc(Cl)c2Cl)c(N)n1
inactive: dose: 87.5 mg/kg/injection, schedule: Q01DX009 (ip), vehicle: Klucel (hydroxypropylcellulose) (HPC) 95 % of control | dose: 175.0 mg/kg/injection, schedule: Q01DX009 (ip), vehicle: Klucel (hydroxypropylcellulose) (HPC) 88 % of control | dose: 350.0 mg/kg/injection, schedule: Q01DX009 (ip), vehicle: Klucel (hydroxypropylcellulose) (HPC) 106 % of control

CC1(C)CC(OP(OC2CC(C)(C)N(O)C(C)(C)C2)OC2CC(C)(C)N(O)C(C)(C)C2)CC(C)(C)N1O
inactive: dose: 100.0 mg/kg/injection, schedule: Q01DX001 (ip), vehicle: water 100 % of control | dose: 200.0 mg/kg/injection, schedule: Q01DX001 (ip), vehicle: water 94 % of control | dose: 400.0 mg/kg/injection, schedule: Q01DX001 (ip), vehicle: water 94 % of control

CCCCCCCCCCCCOC(=O)/C=C\C(=O)NC(N)=O
inactive: dose: 25.0 mg/kg/injection, schedule: Q04DX003 (ip), vehicle: Klucel (hydroxypropylcellulose) (HPC) 102 % of control | dose: 50.0 mg/kg/injection, schedule: Q04DX003 (ip), vehicle: Klucel (hydroxypropylcellulose) (HPC) 97 % of control | [6] 105 % of control and 91 % of control | dose: 150.0 mg/kg/injection, schedule: Q04DX003 (ip), vehicle: Klucel (hydroxypropylcellulose) (HPC) 96 % of control

CCOC(CN1CCCCC1)c1ccccc1 (configuration not stated)
inactive: dose: 12.5 mg/kg/injection, schedule: Q01DX009 (ip), vehicle: saline with Tween-80 98 % of control | dose: 25.0 mg/kg/injection, schedule: Q01DX009 (ip), vehicle: saline with Tween-80 102 % of control | dose: 50.0 mg/kg/injection, schedule: Q01DX009 (ip), vehicle: saline with Tween-80 100 % of control

CCCCC(CCCC)NCCO
inactive: dose: 75.0 mg/kg/injection, schedule: Q01DX001 (ip), vehicle: carboxymethylcellulose (CMC) 98 % of control | dose: 150.0 mg/kg/injection, schedule: Q01DX001 (ip), vehicle: carboxymethylcellulose (CMC) 96 % of control

CC(C)(C)C(=O)[CH-]C(=O)C(C)(C)C.CC(C)(C)C(=O)[CH-]C(=O)C(C)(C)C.CC(C)(C)C(=O)[CH-]C(=O)C(C)(C)C.CN(C)C=O.[Er+3]
inactive: dose: 100.0 mg/kg/injection, schedule: Q04DX002 (ip), vehicle: saline with Tween-80 105 % of control | dose: 200.0 mg/kg/injection, schedule: Q04DX002 (ip), vehicle: saline with Tween-80 94 % of control | dose: 400.0 mg/kg/injection, schedule: Q04DX002 (ip), vehicle: saline with Tween-80 94 % of control

COC(=O)C(=[N+]=[N-])C(F)(F)F
inactive: dose: 50.0 mg/kg/injection, schedule: Q01DX009 (ip), vehicle: saline 95 % of control | dose: 100.0 mg/kg/injection, schedule: Q01DX009 (ip), vehicle: saline 102 % of control | dose: 200.0 mg/kg/injection, schedule: Q01DX009 (ip), vehicle: saline 102 % of control

CC(=Nc1ccccc1)C1=C(O)C(CC(C)C)NC1=O (configuration not stated)
inactive: [2] 95 % of control | [3] 104 % of control | [4] 101 % of control | [5] 101 % of control

O=S(=O)(Cc1ccccc1)C(Br)Br
inactive: dose: 100.0 mg/kg/injection, schedule: Q01DX001 (ip), vehicle: other 106 % of control | [7] 100 % of control | dose: 200.0 mg/kg/injection, schedule: Q01DX001 (ip), vehicle: other 101 % of control | [8] 97 % of control | dose: 400.0 mg/kg/injection, schedule: Q01DX001 (ip), vehicle: other 101 % of control | dose: 400.0 mg/kg/injection, schedule: Q04DX002 (ip), vehicle: Klucel (hydroxypropylcellulose) (HPC) 103 % of control

CC(C(=O)O)N(Cc1ccccc1)S(C)(=O)=O (configuration not stated)
inactive: [9] 97 % of control | dose: 100.0 mg/kg/injection, schedule: Q04DX003 (ip), vehicle: other 94 % of control | [10] 106 % of control | dose: 200.0 mg/kg/injection, schedule: Q04DX003 (ip), vehicle: other 102 % of control | dose: 400.0 mg/kg/injection, schedule: Q01DX009 (ip), vehicle: other 108 % of control | dose: 400.0 mg/kg/injection, schedule: Q04DX003 (ip), vehicle: other 101 % of control

O=C(O)/C=C\c1ccccc1
inactive: [9] 100 % of control | [10] 95 % of control

COc1cc2oc(C)c(C)c2cc1/C=C\[N+](=O)[O-]
inactive: dose: 50.0 mg/kg/injection, schedule: Q04DX002 (ip), vehicle: Klucel (hydroxypropylcellulose) (HPC) 96 % of control | dose: 100.0 mg/kg/injection, schedule: Q01DX009 (ip), vehicle: Klucel (hydroxypropylcellulose) (HPC) 93 % of control | [7] 93 % of control | dose: 200.0 mg/kg/injection, schedule: Q01DX009 (ip), vehicle: Klucel (hydroxypropylcellulose) (HPC) 98 % of control | [8] 96 % of control | dose: 400.0 mg/kg/injection, schedule: Q01DX009 (ip), vehicle: Klucel (hydroxypropylcellulose) (HPC) 100 % of control
